Measurements reported in patent US9701556B1, “Compositions, methods, and systems for reducing contamination” (priority 2004, dated 2017).
Several values for one entry are separate records, joined by “and”; a condition that tells them apart may be missing. Identical values can stand only once.

Tests used:
[1] = test system: heterotrophic bacteria; experiment: Disinfection of wastewater with chelated iron compounds, total heterotrophic bacteria counts; type: cell-based; conditions: for Test 1 CFUs/ml, 19.8 ppm H2O2 6 ppm Fe-Chelant / Test 2 CFUs/ml, 39.6 ppm H2O2 12 ppm Fe-Chelant / Test 3 CFUs/ml, 12 ppm Fe-Chelant: 30 minutes, raw average 18,188 CFUs; for Test 3 CFUs/ml, 12 ppm Fe-Chelant: chelant alone, no H2O2; for disinfection effect, in words: compared with hydrogen peroxide alone
Procedure: A 10 gallon sample of wastewater from the Massaponax Wastewater Plant was collected and allowed to sit undisturbed for thirty minutes. The clarified supernatant was then pored off of the top of the settled solids within the sample. The supernatant was then mixed and four samples were collected to determine untreated heterotrophic bacteria counts. […] were dissolved in distilled water at 0.4334M. Ferric chloride was added in amounts to achieve saturation of chelant sites on the respective chelants. […] Twenty individual liter samples of supernatant were then decanted from the well-mixed wastewater sample for testing. Four chelated iron products with peroxide were tested at two test concentrations and compared to samples receiving peroxide only and iron chelate only. […] Individual samples were dosed with the respective additives, mixed with a magnetic stir bar and allowed to react for 30 minutes. Samples were then decanted to sterile sample containers containing sodium thiosulfate to stop the oxidation process and preserve the sample. Samples were then placed in a refrigerator until all samples were finished. Samples were packaged in a standard cooler with ice packs and sent via overnite delivery to ProChem Labs in Lynchburg, Va. for analysis for total heterotrophic bacteria counts.

[2] = Treatment of sulfides in municipal wastewater with ferric chelants and ozone; conditions: 4 ppm ferric chelant where added; for Overall total percentage of sulfide reduction: ozone; for sulfide remaining: ozone at ~13.4 ppm
[3] = Treatment of sulfides in municipal wastewater with ferric chelants and hydrogen peroxide; conditions: for sulfide reduction after 15 minutes: 2.5:1.0 peroxide to sulfide, 105.8 ppm hydrogen peroxide, 20 ppm chelant where added, peroxide alone averaged; for sulfide treatment after 15 minutes: 37.8 ppm hydrogen peroxide, 12 ppm chelant where added; for Percentage of Sulfide Treated, Dose 1 12 ppm Chelant 37.8 ppm H2O2 / Percentage of Sulfide Treated, Dose 2 6 ppm Chelant 37.8 ppm H2O2 / Percentage of Sulfide Treated, Dose 1 20 ppm Chelant 105.8 ppm H2O2 / Percentage of Sulfide Treated, Dose 2 10 ppm Chelant 105.8 ppm H2O2: after 30 minutes; for Percentage of Sulfide Treated, Dose 1 12 ppm Chelant 37.8 ppm H2O2 / Percentage of Sulfide Treated, Dose 2 6 ppm Chelant 37.8 ppm H2O2: 1.5:1.0 ratio of peroxide to sulfide; for Percentage of Sulfide Treated, Dose 1 20 ppm Chelant 105.8 ppm H2O2 / Percentage of Sulfide Treated, Dose 2 10 ppm Chelant 105.8 ppm H2O2: 2.5:1.0 ratio of peroxide to sulfide; for sulfide treatment compared with hydrogen peroxide alone, in words: over 30 minutes of treatment; for Sulfide Remaining, Dose 1 12 ppm Chelant / Sulfide Remaining, Dose 2 6 ppm Chelant: 37.8 ppm H2O2, start 25.4 ppm sulfide; for Sulfide Remaining, Dose 1 20 ppm Chelant / Sulfide Remaining, Dose 2 10 ppm Chelant: 105.8 ppm H2O2, start 42.3 ppm sulfide
[4] = start 13.70, contact time 5 minutes
[5] = start 13.70, contact time 10 minutes
[6] = start 13.70, contact time 20 minutes
[7] = Series One, contact time 5 minutes, listed as Ferric NTA
[8] = Series Two, 20 ppm chelant, no H2O2, start 42.3 ppm sulfide, contact time 30 minutes
[9] = Series Two, contact time 5 minutes
[10] = Series Two, contact time 15 minutes
[11] = Series Two, contact time 30 minutes
[12] = Series One, contact time 5 minutes
[13] = Series One, contact time 15 minutes
[14] = Series One, contact time 30 minutes
[15] = Series One, no H2O2, start 25.4 ppm sulfide, contact time 30 minutes

Molecule	Test 1 CFUs/ml, 19.8 ppm H2O2 6 ppm Fe-Chelant [1] [CFUs/ml]	Test 2 CFUs/ml, 39.6 ppm H2O2 12 ppm Fe-Chelant [1] [CFUs/ml]	Test 3 CFUs/ml, 12 ppm Fe-Chelant [1]	disinfection effect, in words [1]	Overall total percentage of sulfide reduction [2] [%]	Percentage of Sulfide Treated, Dose 1 12 ppm Chelant 37.8 ppm H2O2 [3]	Percentage of Sulfide Treated, Dose 2 6 ppm Chelant 37.8 ppm H2O2 [3]	Percentage of Sulfide Treated, Dose 1 20 ppm Chelant 105.8 ppm H2O2 [3]	Percentage of Sulfide Treated, Dose 2 10 ppm Chelant 105.8 ppm H2O2 [3]	sulfide treatment compared with hydrogen peroxide alone, in words [3]	Sulfide Remaining, Dose 4 Chelant Only [3, 8] [ppm]	Sulfide Remaining, Dose 1 20 ppm Chelant [3, 9] [ppm]	Sulfide Remaining, Dose 2 10 ppm Chelant [3, 9] [ppm]	Sulfide Remaining, Dose 1 20 ppm Chelant [3, 10] [ppm]	Sulfide Remaining, Dose 2 10 ppm Chelant [3, 10] [ppm]	Sulfide Remaining, Dose 1 20 ppm Chelant [3, 11] [ppm]	Sulfide Remaining, Dose 2 10 ppm Chelant [3, 11] [ppm]	Sulfide Remaining, Dose 1 12 ppm Chelant [3, 12] [ppm]	Sulfide Remaining, Dose 2 6 ppm Chelant [3, 12] [ppm]	Sulfide Remaining, Dose 1 12 ppm Chelant [3, 13] [ppm]	further results
O=C([O-])CN(CCN(CC(=O)[O-])CC(=O)[O-])CC(=O)[O-].[Fe+3] [Fe-EDTA]	360	59	18,200 CFUs/ml	very little effect on viable cells beyond that exhibited by hydrogen peroxide alone	64	68.5	64.2	87.5	83.7	noticeably better											Overall total percentage of sulfide reduction ([2]; listed as ferric EDTA): 64%; sulfide reduction after 15 minutes [3]: 60%; sulfide treatment after 15 minutes [3]: 61%
O=C([O-])CN(CCO)CC(=O)[O-].[Fe+3] [Fe-HEIDA]	1350	84	16,700 CFUs/ml	very little effect on viable cells beyond that exhibited by hydrogen peroxide alone	60	44.1	41.3	69.5	66.9	did not perform well											Overall total percentage of sulfide reduction ([2]; listed as ferric HEIDA): 60%
O=C([O-])CN(CC(=O)[O-])CC(=O)[O-].[Fe+3] [Fe-NTA]	370	75	18,300 CFUs/ml	very little effect on viable cells beyond that exhibited by hydrogen peroxide alone	91	78.3	68.9	93.4	90.0	noticeably better	41.0	23.3	26.7	12.6	16.3	2.8	4.2				sulfide remaining [2, 4]: 3.40 ppm; sulfide remaining [2, 5]: 1.90 ppm; sulfide remaining [2, 6]: 1.30 ppm; Overall total percentage of sulfide reduction ([2]; listed as ferric NTA): 91%; sulfide reduction after 15 minutes [3]: 70.2%; sulfide treatment after 15 minutes [3]: 73%; Sulfide Remaining, Dose 1 12 ppm Chelant [3, 7]: 15.2 ppm and 20.0 ppm; Sulfide Remaining, Dose 2 6 ppm Chelant [3, 7]: 15.9 ppm and 20.3 ppm; Sulfide Remaining, Dose 2 6 ppm Chelant ([3]; Series One, contact time 15 minutes, listed as Ferric NTA): 12.6 ppm and 16.4 ppm; Sulfide Remaining, Dose 2 6 ppm Chelant ([3]; Series One, contact time 30 minutes, listed as Ferric NTA): 7.9 ppm and 14.9 ppm; Sulfide Remaining, Dose 4 Chelant Only ([3]; Series One, no H2O2, start 25.4 ppm sulfide, contact time 30 minutes, listed as Ferric NTA): 24.6 ppm and 25.2 ppm
O=C([O-])CC(O)(CC(=O)[O-])C(=O)[O-].[Fe+3] [Ferric Citrate]						58.7	51.2	66.2	69.5		42.0	30.1	29.9	19.6	20.2	14.3	12.9	17.8	18.1	14.1	Sulfide Remaining, Dose 2 6 ppm Chelant [3, 13]: 15.8 ppm; Sulfide Remaining, Dose 1 12 ppm Chelant [3, 14]: 10.5 ppm; Sulfide Remaining, Dose 2 6 ppm Chelant [3, 14]: 12.4 ppm; Sulfide Remaining, Dose 4 Chelant Only [3, 15]: 25.0 ppm
O=[O+][O-] [Ozone only, Ozone]					46																sulfide remaining [2, 4]: 8.05 ppm; sulfide remaining [2, 5]: 7.50 ppm; sulfide remaining [2, 6]: 7.40 ppm
Ferric Ascorbate						62.2	59.0	74.5	71.9	some modest improvement over hydrogen peroxide treatment alone	41.8	26.9	27.2	17.7	19.7	10.8	11.9	16.6	17.2	11.8	Sulfide Remaining, Dose 2 6 ppm Chelant [3, 13]: 12.4 ppm; Sulfide Remaining, Dose 1 12 ppm Chelant [3, 14]: 9.6 ppm; Sulfide Remaining, Dose 2 6 ppm Chelant [3, 14]: 10.4 ppm; Sulfide Remaining, Dose 4 Chelant Only [3, 15]: 24.6 ppm
Ferric Gallate						59.1	55.9	68.7	69.0	did not perform well overall	43.0	29.2	27.8	20.2	22.2	13.2	13.1	18.4	18.0	14.0	Sulfide Remaining, Dose 2 6 ppm Chelant [3, 13]: 13.6 ppm; Sulfide Remaining, Dose 1 12 ppm Chelant [3, 14]: 10.4 ppm; Sulfide Remaining, Dose 2 6 ppm Chelant [3, 14]: 11.2 ppm; Sulfide Remaining, Dose 4 Chelant Only [3, 15]: 24.7 ppm
